Here are results for 13 compounds from patent publication US20250346600A1, “TRICYCLIC DERIVATIVES AND RELATED USES” (MOMA Therapeutics, Inc., priority 2023, published 2025).

One may read the AC50 as the concentration giving half of the maximal activity seen.

Read-outs that look alike come from different tables or passages of the source.

Test [1] concerns the target T1, Full length WRN protein (aa 2-1432) (Homo sapiens (Human), UniProt Q14191). As to the kind of experiment: WRN ATPase ADP-Glo biochemical assay, Assay Format B (100 μM ATP). To be noted: 0.25 nM WRN, 100 nM C6.18 ssDNA, 60 min preincubation, read-out: ATPase ADPGlo AC50 (uM)- Assay Format B. For orientation: ADP-Glo turns the ADP formed in a reaction into a luminescent signal.

Test [2] concerns the target T1, Full length WRN protein (aa 2-1432). As to the kind of experiment: WRN ATPase ADP-Glo biochemical assay, Assay Format A (10 μM ATP). To be noted: 0.25 nM WRN, 100 nM C6.18 ssDNA, 30 min preincubation, read-out: ATPase ADPGlo AC50 (uM)- Assay Format A. An outline of the steps: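 ADP-Glo luminescence measured hydrolysis of ATP by purified, baculovirus-expressed N-terminally tagged full-length WRN. Enzyme (0.5 nM) was preincubated 30 min with compound, then 200 nM ssDNA C6.18 plus 20 μM ATP were added (pre-mix levels) for 30 min at RT. IC50s come from four-parameter fits, geometric mean of at least two trials.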

For the next test, the system named is HCT116 cells. As to the kind of experiment: HCT116 (MSI) 7 day viability, CellTiter Glo. To be noted: 7 days, read-out: HCT116 (MSI) Viability 7 Day Abs AC50. Format: cell-based. An outline of the steps: (§1)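 10 mM DMSO stocks serially diluted 3-fold, 10 steps; cells added (HCT116 50/well, HT29 500/well); 7 d, 37 °C, 5% CO2; CellTiter Glo 20 min RT; luminescence.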
(Cellular ATP, detected with luciferase, serves as a proxy for viable cell number.)

Another test relates to HT29 cells. As to the kind of experiment: HT29 (MSS) 7 day viability, CellTiter Glo. Format: cell-based. Conditions: 7 days, read-out: HT29 (MSS) Viability 7 Day CTGAbs AC50. In outline:
as §1

T1 sequence (Q14191 2-1432): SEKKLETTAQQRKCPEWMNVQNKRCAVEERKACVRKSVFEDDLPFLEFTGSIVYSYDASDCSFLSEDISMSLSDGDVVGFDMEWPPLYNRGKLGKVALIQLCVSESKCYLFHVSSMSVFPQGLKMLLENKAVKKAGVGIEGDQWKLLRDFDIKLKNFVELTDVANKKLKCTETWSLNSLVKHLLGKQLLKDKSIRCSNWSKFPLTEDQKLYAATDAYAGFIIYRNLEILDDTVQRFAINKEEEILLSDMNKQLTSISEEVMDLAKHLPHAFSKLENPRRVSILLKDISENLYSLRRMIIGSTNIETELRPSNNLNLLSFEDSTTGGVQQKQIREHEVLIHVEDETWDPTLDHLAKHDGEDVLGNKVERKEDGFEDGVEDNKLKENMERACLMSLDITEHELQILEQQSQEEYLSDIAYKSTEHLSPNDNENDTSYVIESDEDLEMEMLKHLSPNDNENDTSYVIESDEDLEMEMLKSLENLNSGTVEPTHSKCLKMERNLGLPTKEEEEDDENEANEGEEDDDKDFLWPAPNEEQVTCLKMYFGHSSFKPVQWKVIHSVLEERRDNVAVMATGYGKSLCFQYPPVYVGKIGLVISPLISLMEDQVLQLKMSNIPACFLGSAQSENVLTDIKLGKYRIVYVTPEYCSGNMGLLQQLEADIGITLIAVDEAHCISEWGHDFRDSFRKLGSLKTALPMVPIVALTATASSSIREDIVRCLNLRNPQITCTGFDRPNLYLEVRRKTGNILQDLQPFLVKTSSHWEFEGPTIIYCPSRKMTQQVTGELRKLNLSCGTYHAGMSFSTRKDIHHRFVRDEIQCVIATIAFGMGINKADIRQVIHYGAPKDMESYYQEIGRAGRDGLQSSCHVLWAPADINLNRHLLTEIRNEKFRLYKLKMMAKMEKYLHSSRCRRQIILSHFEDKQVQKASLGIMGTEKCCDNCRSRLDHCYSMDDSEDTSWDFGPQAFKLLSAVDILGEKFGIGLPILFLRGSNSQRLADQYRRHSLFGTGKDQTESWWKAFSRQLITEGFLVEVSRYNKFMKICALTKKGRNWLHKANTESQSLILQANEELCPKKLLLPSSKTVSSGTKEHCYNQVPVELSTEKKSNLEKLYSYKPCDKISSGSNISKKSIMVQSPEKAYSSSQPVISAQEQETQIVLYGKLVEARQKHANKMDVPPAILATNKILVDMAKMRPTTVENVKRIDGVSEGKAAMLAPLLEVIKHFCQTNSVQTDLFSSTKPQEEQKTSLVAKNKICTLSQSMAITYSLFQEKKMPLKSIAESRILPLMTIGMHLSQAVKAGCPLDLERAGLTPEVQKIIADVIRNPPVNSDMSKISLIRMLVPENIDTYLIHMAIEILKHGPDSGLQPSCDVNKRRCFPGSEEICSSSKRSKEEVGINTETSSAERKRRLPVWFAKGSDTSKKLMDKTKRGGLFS

With `C=CC(=O)N1CCc2nn(-c3ccc(C4CCC4)cc3O)c3c2C(C1)N(C(=O)c1ccc(SC(F)(F)F)nc1)CC3` (stereo not shown) [Compound 157, 1-(2-(4-cyclobutyl-2-hydroxyphenyl)-5-(6-((trifluoromethyl)thio)nicotinoyl)-2,3,4,5,5a,6,8,9-octahydro-7H-1,2,5,7-tetraazabenzo[cd]azulen-7-yl)prop-2-en-1-one], the AC50 in test [1] is 0.005 to 0.015 µM; in test [2], under 0.0015 µM; in the test with HCT116 cells (Homo sapiens, HCT-116, 168 h), 1 to 100 nM; with HT29 cells (Homo sapiens, HT-29, 168 h) it was over 3000 nM.
For `C=CC(=O)N1CCc2nn(-c3ccc(C4CC4)cc3OC(F)F)c3c2C(C1)N(C(=O)c1cnc(C(F)(F)F)cc1N)CC3` (stereo not shown) [Compound 252, 1-(5-(4-amino-6-(trifluoromethyl)nicotinoyl)-2-(4-cyclopropyl-2-(difluoromethoxy)phenyl)-2,3,4,5,5a,6,8,9-octahydro-7H-1,2,5,7-tetraazabenzo[cd]azulen-7-yl)prop-2-en-1-one], the AC50 was 0.005 to 0.015 µM in test [1]; 0.0015 to 0.005 µM in test [2]; 1 to 100 nM in the test on HCT116 cells (Homo sapiens, HCT-116, 168 h); over 3000 nM in the test on HT29 cells (Homo sapiens, HT-29, 168 h).
On to `C=CC(=O)N1CCc2nn(-c3cc(F)c(C4CC4)c(F)c3O)c3c2C(C1)N(C(=O)c1cnc(C(F)(F)F)cc1N)CC3` (stereo not shown) [Compound 244, 1-(5-(4-amino-6-(trifluoromethyl)nicotinoyl)-2-(4-cyclopropyl-3,5-difluoro-2-hydroxyphenyl)-2,3,4,5,5a,6,8,9-octahydro-7H-1,2,5,7-tetraazabenzo[cd]azulen-7-yl)prop-2-en-1-one], for which the AC50 in test [1] was 0.015 to 0.055 µM; in test [2] it was 0.0015 to 0.005 µM; in the test with HCT116 cells (Homo sapiens, HCT-116, 168 h), 1 to 100 nM; in the test with HT29 cells (Homo sapiens, HT-29, 168 h), over 3000 nM.
The like results for `COC/C=C/C(=O)N1CCc2nn(-c3ccc(C4CCC4)cc3O)c3c2C(C1)N(C(=O)c1cnc(C(F)(F)F)cc1N)CC3` (stereo not shown) [Compound 239, 1-(5-(4-amino-6-(trifluoromethyl)nicotinoyl)-2-(4-cyclobutyl-2-hydroxyphenyl)-2,3,4,5,5a,6,8,9-octahydro-7H-1,2,5,7-tetraazabenzo[cd]azulen-7-yl)-4-methoxybut-2-en-1-one] were, in that order, over 0.055 µM, 0.005 to 0.015 µM, 100 to 250 nM and over 3000 nM.
As to `C=CC(=O)N1CC(O)c2nn(-c3ccc(C4CC4)cc3)c3c2C(C1)N(C(=O)c1cnc(C(F)(F)F)cc1N)CC3` (stereo not shown) [Compound 184, 1-(5-(4-amino-6-(trifluoromethyl)nicotinoyl)-2-(4-cyclopropylphenyl)-9-hydroxy-2,3,4,5,5a,6,8,9-octahydro-7H-1,2,5,7-tetraazabenzo[cd]azulen-7-yl)prop-2-en-1-one], the AC50 in test [1] was 0.005 to 0.015 µM; in test [2], under 0.0015 µM; in the test on HCT116 cells (Homo sapiens, HCT-116, 168 h), 1 to 100 nM; in the test with HT29 cells (Homo sapiens, HT-29, 168 h), over 3000 nM.
`C=CC(=O)N1CCc2nn(-c3ccc(C4CC4)cc3)c3c2C(C1)N(C(=O)c1ccc(Br)nc1N)CC3` (stereo not shown) [Compound 117, 1-(5-(2-amino-6-bromonicotinoyl)-2-(4-cyclopropylphenyl)-2,3,4,5,5a,6,8,9-octahydro-7H-1,2,5,7-tetraazabenzo[cd]azulen-7-yl)prop-2-en-1-one]: the AC50 is 0.005 to 0.015 µM in test [1]; 0.0015 to 0.005 µM in test [2]; 1 to 100 nM in the test on HCT116 cells (Homo sapiens, HCT-116, 168 h); over 3000 nM in the test on HT29 cells (Homo sapiens, HT-29, 168 h).
On to `C=CC(=O)N1CCOc2nn(-c3ccc(C45CC(C4)C5)cc3)c3c2C(C1)N(C(=O)c1ccc(Br)c2[nH]cnc12)CC3` (stereo not shown) [Compound 43, 1-(2-(4-(bicyclo[1.1.1]pentan-1-yl)phenyl)-5-(7-bromo-1H-benzo[d]imidazole-4-carbonyl)-2,3,4,5,5a,6,8,9-octahydro-7H-10-oxa-1,2,5,7-tetraazacycloocta[cd]inden-7-yl)prop-2-en-1-one], for which the AC50 was 0.005 to 0.015 µM in test [1]; under 0.0015 µM in test [2]; 1 to 100 nM with HCT116 cells (Homo sapiens, HCT-116, 168 h); over 3000 nM with HT29 cells (Homo sapiens, HT-29, 168 h).
As for `C=CC(=O)N1CC(C)c2nn(-c3ccc(C(C)C)cc3O)c3c2C(C1)N(C(=O)c1ccc(Br)c2[nH]cnc12)CC3` (stereo not shown) [Compound 31, 1-(5-(7-bromo-1H-benzo[d]imidazole-4-carbonyl)-2-(2-hydroxy-4-isopropylphenyl)-9-methyl-2,3,4,5,5a,6,8,9-octahydro-7H-1,2,5,7-tetraazabenzo[cd]azulen-7-yl)prop-2-en-1-one], the AC50 in test [1] is 0.015 to 0.055 µM; in test [2], 0.0015 to 0.005 µM; with HCT116 cells it was 250 to 500 nM; in the test with HT29 cells (Homo sapiens, HT-29, 168 h) it was over 3000 nM.
On to `C=CC(=O)N1CC(C)c2nn(-c3ccc(C(C)C)cc3)c3c2C(C1)N(C(=O)c1ccc(Br)c2[nH]cnc12)CC3` (stereo not shown) [Compound 34, 1-(5-(7-bromo-1H-benzo[d]imidazole-4-carbonyl)-2-(4-isopropylphenyl)-9-methyl-2,3,4,5,5a,6,8,9-octahydro-7H-1,2,5,7-tetraazabenzo[cd]azulen-7-yl)prop-2-en-1-one], for which the AC50 in test [1] was 0.005 to 0.015 µM; in test [2], 0.0015 to 0.005 µM; in the test with HCT116 cells, 250 to 500 nM; with HT29 cells, over 3000 nM.
Consider `C=CC(=O)N1CCc2nn(-c3ccc(C4CC4)cc3O)c3c2C(C1)N(C(=O)c1cnc(OC(F)F)cc1N)CC3` (stereo not shown) [Compound 192, 1-(5-(4-amino-6-(difluoromethoxy)nicotinoyl)-2-(4-cyclopropyl-2-hydroxyphenyl)-2,3,4,5,5a,6,8,9-octahydro-7H-1,2,5,7-tetraazabenzo[cd]azulen-7-yl)prop-2-en-1-one], for which the AC50 is 0.005 to 0.015 µM in test [1]; under 0.0015 µM in test [2]; 1 to 100 nM in the test with HCT116 cells (Homo sapiens, HCT-116, 168 h); over 3000 nM in the test on HT29 cells (Homo sapiens, HT-29, 168 h).
The like results for `C=CC(=O)N1CCc2nn(-c3ccc(C4CC4)cc3O)c3c2C(C1)N(C(=O)c1cnc(C(F)(F)F)c(F)c1N)CC3` (stereo not shown) [Compound 194, 1-(5-(4-amino-5-fluoro-6-(trifluoromethyl)nicotinoyl)-2-(4-cyclopropyl-2-hydroxyphenyl)-2,3,4,5,5a,6,8,9-octahydro-7H-1,2,5,7-tetraazabenzo[cd]azulen-7-yl)prop-2-en-1-one] were, in that order, 0.005 to 0.015 µM, 0.0015 to 0.005 µM, 1 to 100 nM and over 3000 nM.
The like results for `C=CC(=O)N1CCc2nn(-c3ccc(C45CC(C4)C5)cc3O)c3c2C(C1)N(C(=O)c1cnc(C(F)(F)F)c(O)c1)CC3` (stereo not shown) [Compound 92, 1-(2-(4-(bicyclo[1.1.1]pentan-1-yl)-2-hydroxyphenyl)-5-(5-hydroxy-6-(trifluoromethyl)nicotinoyl)-2,3,4,5,5a,6,8,9-octahydro-7H-1,2,5,7-tetraazabenzo[cd]azulen-7-yl)prop-2-en-1-one] were, in that order, 0.015 to 0.055 µM, under 0.0015 µM, 1 to 100 nM and over 3000 nM.
Take `C=CC(=O)N1CCc2nn(-c3ccc(C4CC4)cc3)c3c2C(C1)N(C(=O)c1cnc(C(F)(F)F)cc1N)CC3` (stereo not shown) [Compound 128, 1-(5-(4-amino-6-(trifluoromethyl)nicotinoyl)-2-(4-cyclopropylphenyl)-2,3,4,5,5a,6,8,9-octahydro-7H-1,2,5,7-tetraazabenzo[cd]azulen-7-yl)prop-2-en-1-one]: the AC50 in test [1] was 0.005 to 0.015 µM; in test [2] it was under 0.0015 µM; in the test on HCT116 cells (Homo sapiens, HCT-116, 168 h), 1 to 100 nM; in the test with HT29 cells (Homo sapiens, HT-29, 168 h), over 3000 nM.
